Reference: patent publication US4849409A, “Diels-alder adduct from streptazoline and naphthoquinones and its oxidation products, which have cytotoxic and antimicrobial activity and which act against protozoa” (Hoechst Aktiengesellschaft, priority 1986, dated 1989)
Converted amounts (≈) assume the structure as drawn. Like-named read-outs stand apart in the source and are kept apart here.

Legend:
L1210 leukemia cells = test: cells; format: cell-based, mouse; settings: for IC50: Mus musculus
Procedure: The cytotoxic action of the compounds can be established in various test systems such as, for example, in the soft agar colony test on mouse leukemia cells in vitro.
Formation of colonies of L1210 leukemia cells in soft agar:
In this test, substances having cytostatic activity bring about a reduction in the observed number of colonies compared with an untreated control. The details of the test procedure are as follows:
500 L1210 leukemia cells per plate are incubated with various concentrations of the compound of the formula II, obtained as in Example 3, as test substance at 37° C. for 1 hour. The cells are then washed twice with McCoy 5A medium and finally, after addition of 0.3% agar, poured into Petri dishes. Controls are incubated merely with fresh medium. In addition, in place of the incubation for 1 hour, various concentrations of the test substance are admixed to the upper agar layer, in order thus to acheive continuous exposure of the cells throughout the incubation time. After the agar has solidified, the plates are incubated in an incubator at 37° C. for 7 days (5% CO2, 95% relative humidity). The number of resultant colonies with a diameter >60μ is then counted. The results are expressed as the quotient of the number of colonies on treated agar plates and the number of colonies on the untreated control. The IC50 was obtained, as a measure of the activity of the test substance, from the dose-effect curve thus obtained. The comparison substance used in this test is the cytostatic adriamycin.

leukemia cells = settings: cited from earlier work
[1] = in words; cited from earlier work
[2] = L1210, 168 h, continuous exposure, substance in upper agar layer, 7 days at 37° C., read-out: Stem cell assay cont. IC50
[3] = L1210, incubation for 1 hour at 37° C., then washed, 7 days in agar, read-out: Stem cell assay 1 h IC50

SMILES	cytotoxicity (assessment) (L1210 leukemia cells)	IC50 (L1210 leukemia cells; [2]) [µg/mL]	IC50 (L1210 leukemia cells; [3]) [µg/mL]	cytotoxic action (leukemia cells)	antibiotic action [1]
CC1C2=C(C(=O)c3c(O)ccc(O)c3C2=O)[C@@H]2CCN3C(=O)O[C@@H]4[C@@H](O)C1=C2[C@@H]43 (stereo partly shown) [Test substance]	cytotoxicity comparable to that of adriamycin	0.04 (≈ 0.101 µM)	0.26 (≈ 0.658 µM)	–	–
COc1cccc2c1C(=O)c1c(O)c3c(c(O)c1C2=O)C[C@@](O)(C(=O)CO)C[C@@H]3O[C@H]1C[C@H](N)[C@H](O)[C@H](C)O1 [Adriamycin]	–	0.02 (≈ 0.0368 µM)	0.04 (≈ 0.0736 µM)	–	–
CC=C1C2=CCCN3C(=O)OC(C1O)C23 (stereo not shown) [Streptazoline]	no cytotoxicity worthy of note	10 (≈ 48.3 µM)	10 (≈ 48.3 µM)	no cytotoxic action	only a very weak antibiotic
